Results taken from PubChem BioAssay (NCI).
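Grown in 96-well plates, cells were treated for 48 hours with each compound at five concentrations. Insufficient inhibition: endpoint recorded as highest concentration tested. TGI is the concentration that stops growth completely.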

Columns and labels:
Test in all cases: growth of human tumour cells (NCI), 48 h
[1] = system: SNB-19 CNS
[2] = system: HL-60(TB) leukemia
[3] = system: SR leukemia
[4] = system: LXFL 529 NSCLC
[5] = system: SF-268 CNS
[6] = system: M19-MEL melanoma
[7] = system: OVCAR-4 ovarian
[8] = system: HS 578T breast
[9] = system: T-47D breast
[10] = system: MCF7 breast
[11] = system: PC-3 prostate

In the case of Oc1ccccc1C=Nc1ccccc1N=Cc1ccccc1O, the TGI [1] is reported as > 100 µM, the TGI [2] is reported as 81.5 µM and the TGI [3] is reported as > 100 µM. The TGI [4] was > 100 µM, the TGI [5] was > 100 µM and the TGI [6] was > 100 µM.

For CC1(CO)C(=O)OC12CCCCC2 (configuration not stated), the TGI [1] was > 100 µM, the TGI [2] was > 100 µM and the TGI [3] was > 100 µM. For the same compound, the TGI [4] was > 100 µM, the TGI [7] was > 100 µM and the TGI [5] was > 100 µM. The TGI [6] was > 100 µM.

For COc1c(Cl)c(Cl)c(OC)c2c1C(=O)C=CC2=O, the TGI [1] was > 100 µM, the TGI [2] was 5.09 µM and the TGI [3] was 42.9 µM. The TGI [4] was 29.3 µM, the TGI [7] was 28.9 µM and the TGI [5] was 30.6 µM. It also gave a TGI [6] of 32.3 µM.

For NC(=S)N/N=C(\C(=O)Nc1ccc(Cl)c(Cl)c1)C1=NN(c2ccccc2)C(c2cccc([N+](=O)[O-])c2)CC1=O (configuration not stated), the TGI [1] was > 100 µM, the TGI [2] was > 100 µM and the TGI [3] was > 100 µM. For the same compound, the TGI [4] was 48.1 µM, the TGI [7] was 63 µM and the TGI [5] was > 100 µM. It also gave a TGI [6] of 50.5 µM.

In the case of NC(CNc1ccc(O)cc1)C(=O)O (configuration not stated), the TGI [1] is reported as > 100 µM, the TGI [2] is reported as 95.7 µM and the TGI [3] is reported as > 100 µM. The TGI [4] was > 100 µM, the TGI [7] was 31.7 µM and the TGI [5] was > 100 µM. The TGI [6] was 86.3 µM.

COc1ccc(CCC2NCCc3cc(OC)c(OC)cc32)cc1 (configuration not stated) was tested, and the TGI [1] was > 100 µM, the TGI [4] was > 100 µM and the TGI [7] was > 100 µM. The TGI [5] was > 100 µM.

With O=C1NC(=S)NC(=O)C1=Cc1ccc2ccccc2n1 the TGI [1] was > 100 µM, the TGI [2] was > 100 µM and the TGI [3] was > 100 µM. The TGI [4] was > 100 µM, the TGI [7] was > 100 µM and the TGI [5] was > 100 µM. The TGI [6] was > 100 µM.

CCOC(=O)CN(Cc1ccccc1)Cc1c(C(=O)c2ccccc2)c2ccccc2n1C(=O)c1ccccc1 was tested, and the TGI [1] was > 100 µM, the TGI [3] was > 100 µM and the TGI [4] was > 100 µM. The TGI [7] was > 100 µM, the TGI [5] was > 100 µM and the TGI [6] was > 100 µM.

For Cc1ccnc2sc3ccccc3c(=O)c12, the TGI [1] was > 100 µM, the TGI [8] was 77.6 µM and the TGI [2] was > 100 µM. For the same compound, the TGI [3] was > 100 µM, the TGI [9] was > 100 µM and the TGI [10] was > 100 µM. For the same compound, the TGI [7] was > 100 µM, the TGI [5] was > 100 µM and the TGI [11] was > 100 µM.

In the case of CN(C)/C=N/S(=O)(=O)c1nn2c(C=O)c(-c3cc4ccccc4oc3=O)nc2s1, the TGI [1] is reported as > 100 µM, the TGI [8] is reported as > 27 µM and the TGI [2] is reported as 4.05 µM. The TGI [3] was 36.5 µM, the TGI [9] was 18.6 µM and the TGI [10] was > 36.6 µM. The TGI [7] was 28.3 µM, the TGI [5] was > 44.9 µM and the TGI [11] was > 48.5 µM.

CC(C)(CN1CCCCC1)C(=O)/C=C/c1c(Cl)cccc1Cl was tested, and the TGI [1] was 8.39 µM, the TGI [8] was 8.8 µM and the TGI [2] was 4.37 µM. The TGI [3] was > 100 µM, the TGI [9] was 1.44 µM and the TGI [10] was 5.31 µM. It also gave a TGI [7] of 4.98 µM, a TGI [5] of 3.88 µM and a TGI [11] of 3.46 µM.

Nc1ccc(-c2nc3cc(F)ccc3s2)cc1 was tested, and the TGI [1] was > 100 µM, the TGI [8] was > 100 µM and the TGI [2] was > 100 µM. For the same compound, the TGI [3] was > 100 µM, the TGI [9] was > 100 µM and the TGI [10] was > 63.2 µM. The TGI [7] was > 100 µM, the TGI [5] was > 100 µM and the TGI [11] was 45.8 µM.

CCOC(=O)C1=CN(C(=O)c2ccccc2)CCC1Cc1ccccc1 (configuration not stated) was tested, and the TGI [1] was > 100 µM, the TGI [8] was 92.8 µM and the TGI [2] was 32.2 µM. The TGI [3] was 37.5 µM, the TGI [9] was 72.8 µM and the TGI [10] was 64 µM. For the same compound, the TGI [7] was > 100 µM, the TGI [5] was > 100 µM and the TGI [11] was 78.1 µM.

c1cn[nH]c1 was tested, and the TGI [1] was > 10 µM, the TGI [8] was > 10 µM and the TGI [2] was > 10 µM. For the same compound, the TGI [3] was > 10 µM, the TGI [9] was > 10 µM and the TGI [10] was > 10 µM. The TGI [7] was > 10 µM, the TGI [5] was > 10 µM and the TGI [11] was > 10 µM.

Cc1ccc(Nc2ccc(Nc3ccc(C)cc3S(=O)(=O)O)c3c2C(=O)c2ccccc2C3=O)c(S(=O)(=O)O)c1 was tested, and the TGI [1] was > 100 µM, the TGI [2] was > 100 µM and the TGI [3] was > 100 µM. For the same compound, the TGI [4] was > 100 µM, the TGI [7] was > 100 µM and the TGI [5] was > 100 µM.

For Cc1ccc(N(C(=O)CC(=O)N2N=C(c3ccccc3)C(N=Nc3ccc([N+](=O)[O-])cc3)C2=O)C(=O)c2ccc(Cl)cc2)cc1 (configuration not stated), the TGI [1] was 60.1 µM, the TGI [2] was > 56.5 µM and the TGI [3] was 23.1 µM. The TGI [4] was > 52.9 µM, the TGI [7] was > 100 µM and the TGI [5] was 35.4 µM. For the same compound, the TGI [6] was > 53.9 µM.

For C/C(=C/c1c(C)[nH]c(=O)[nH]c1=O)C(=O)O, the TGI [1] was > 1370 µM, the TGI [2] was > 1380 µM and the TGI [10] was > 1380 µM. For the same compound, the TGI [7] was > 1380 µM, the TGI [5] was > 1380 µM and the TGI [6] was > 1380 µM.

With O=C1C(CN2CCCC2)CCCC1CN1CCCC1 (configuration not stated) the TGI [1] was > 100 µM, the TGI [8] was 72.6 µM and the TGI [2] was 0.445 µM. The TGI [3] was 5.66 µM, the TGI [9] was 6.96 µM and the TGI [10] was 2.8 µM. For the same compound, the TGI [7] was 20.3 µM, the TGI [5] was 52.3 µM and the TGI [11] was 32.3 µM.

CC(C)(C)OC(=O)NCCNC(=O)CN(CC(=O)O)C1CCCCC1N(CC(=O)O)CC(=O)O (configuration not stated) was tested, and the TGI [1] was > 100 µM, the TGI [8] was > 100 µM and the TGI [2] was > 100 µM. For the same compound, the TGI [3] was > 100 µM, the TGI [9] was > 100 µM and the TGI [10] was > 100 µM. The TGI [7] was > 100 µM, the TGI [5] was > 100 µM and the TGI [11] was > 100 µM.

For OC1(c2ccc(Cl)cc2)c2ccccc2C2=NCc3ccccc3CN21 (configuration not stated), the TGI [1] was 13.4 µM, the TGI [8] was 32.5 µM and the TGI [2] was 17.4 µM. For the same compound, the TGI [3] was > 56.3 µM, the TGI [9] was > 61.7 µM and the TGI [10] was 17.9 µM. For the same compound, the TGI [7] was 25.6 µM, the TGI [5] was 25.3 µM and the TGI [11] was 15.2 µM.

For COc1ccc(N2C(=O)C3c4[nH]c5ccccc5c4C4CCC(C(C)(C)C)CC4C3C2=O)cc1OC (configuration not stated), the TGI [1] was 71.3 µM, the TGI [2] was > 100 µM and the TGI [3] was 39.9 µM. The TGI [4] was 32.5 µM, the TGI [7] was 52.2 µM and the TGI [5] was 38.3 µM. The TGI [6] was > 100 µM.

Cc1nn(-c2ccccc2)c2c1N=C(C(=O)O)CC(c1ccccc1)=N2 was tested, and the TGI [1] was > 10 µM, the TGI [8] was > 10 µM and the TGI [2] was > 10 µM. The TGI [3] was > 10 µM, the TGI [9] was > 10 µM and the TGI [10] was > 10 µM. For the same compound, the TGI [7] was > 10 µM, the TGI [5] was > 10 µM and the TGI [11] was > 10 µM.

With O=c1cc2cc(O)[nH]c(=O)c2c(O)[nH]1 the TGI [1] was > 100 µM, the TGI [2] was > 100 µM and the TGI [3] was > 100 µM. For the same compound, the TGI [4] was > 100 µM, the TGI [7] was > 100 µM and the TGI [5] was > 100 µM. The TGI [6] was > 100 µM.

With c1csc(-c2nnc(C34CC5CC(CC(C5)C3)C4)o2)c1 the TGI [1] was > 100 µM, the TGI [8] was 74.6 µM and the TGI [2] was 33.5 µM. For the same compound, the TGI [3] was 66.6 µM, the TGI [9] was > 100 µM and the TGI [10] was > 100 µM. The TGI [7] was > 100 µM, the TGI [5] was > 100 µM and the TGI [11] was > 100 µM.

For S=C1CSc2c(cnc3ccccc23)N1, the TGI [1] was > 100 µM, the TGI [8] was > 100 µM and the TGI [2] was > 100 µM. The TGI [3] was > 100 µM, the TGI [9] was > 100 µM and the TGI [10] was > 100 µM. The TGI [7] was > 100 µM, the TGI [5] was > 100 µM and the TGI [11] was > 100 µM.

With O=C1OC(C(O)C(O)C(O)CO)C(O)C1O (configuration not stated) the TGI [1] was > 100 µM, the TGI [8] was > 100 µM and the TGI [2] was > 100 µM. The TGI [3] was > 100 µM, the TGI [9] was > 100 µM and the TGI [10] was > 100 µM. For the same compound, the TGI [7] was > 100 µM, the TGI [5] was > 100 µM and the TGI [11] was > 100 µM.

With CC(CN(C)C)C(=O)/C=C/c1ccc(Cl)c(Cl)c1 (configuration not stated) the TGI [1] was 19.7 µM, the TGI [8] was 29 µM and the TGI [2] was 4.46 µM. The TGI [3] was 6.25 µM, the TGI [9] was > 100 µM and the TGI [10] was 0.929 µM. It also gave a TGI [7] of 19 µM, a TGI [5] of 4.14 µM and a TGI [11] of 2.25 µM.

With COc1ccc(/C=C/C(C(=O)O)C(=O)O)cc1 the TGI [1] was > 100 µM, the TGI [2] was 74.7 µM and the TGI [3] was > 100 µM. The TGI [4] was > 100 µM, the TGI [7] was > 100 µM and the TGI [5] was > 100 µM. For the same compound, the TGI [6] was > 100 µM.

For CC(C)C(/C=C/c1ccccc1)=N\NC(=S)NN, the TGI [1] was > 100 µM, the TGI [8] was > 100 µM and the TGI [2] was > 100 µM. For the same compound, the TGI [3] was > 100 µM, the TGI [9] was > 100 µM and the TGI [10] was > 76.6 µM. For the same compound, the TGI [7] was > 100 µM, the TGI [5] was > 100 µM and the TGI [11] was > 100 µM.

Cc1nn(C(=O)c2ccc(Cl)cc2)c2c1C(c1ccco1)SC(N)=N2 (configuration not stated) was tested, and the TGI [1] was > 10 µM, the TGI [8] was > 10 µM and the TGI [2] was > 10 µM. The TGI [3] was > 10 µM, the TGI [9] was > 10 µM and the TGI [10] was > 10 µM. For the same compound, the TGI [7] was > 10 µM, the TGI [5] was > 10 µM and the TGI [11] was > 10 µM.

With CC(C)(Oc1ccc(C(=O)c2ccc(Cl)cc2)cc1Cl)C(=O)N1CCN(c2ccccc2)CC1 the TGI [1] was > 100 µM, the TGI [2] was > 100 µM and the TGI [3] was > 100 µM. For the same compound, the TGI [4] was > 100 µM, the TGI [5] was > 100 µM and the TGI [6] was > 100 µM.

With Cc1oc2c(C)c3oc(=O)cc(C)c3cc2c1CN the TGI [1] was > 100 µM, the TGI [2] was > 100 µM and the TGI [4] was > 100 µM. For the same compound, the TGI [7] was > 100 µM, the TGI [5] was > 100 µM and the TGI [6] was > 100 µM.
